One data set addresses T1, CARM1 (Homo sapiens, UniProt Q86X55).
T1 construct: FLAG-CARM1 (amino acids 2–585)-His for biochemical studies was expressed in 293 F mammalian cells; made in house; host or cells: 293F mammalian cells
T1 sequence (Q86X55 2-585 isoform Q86X55-1): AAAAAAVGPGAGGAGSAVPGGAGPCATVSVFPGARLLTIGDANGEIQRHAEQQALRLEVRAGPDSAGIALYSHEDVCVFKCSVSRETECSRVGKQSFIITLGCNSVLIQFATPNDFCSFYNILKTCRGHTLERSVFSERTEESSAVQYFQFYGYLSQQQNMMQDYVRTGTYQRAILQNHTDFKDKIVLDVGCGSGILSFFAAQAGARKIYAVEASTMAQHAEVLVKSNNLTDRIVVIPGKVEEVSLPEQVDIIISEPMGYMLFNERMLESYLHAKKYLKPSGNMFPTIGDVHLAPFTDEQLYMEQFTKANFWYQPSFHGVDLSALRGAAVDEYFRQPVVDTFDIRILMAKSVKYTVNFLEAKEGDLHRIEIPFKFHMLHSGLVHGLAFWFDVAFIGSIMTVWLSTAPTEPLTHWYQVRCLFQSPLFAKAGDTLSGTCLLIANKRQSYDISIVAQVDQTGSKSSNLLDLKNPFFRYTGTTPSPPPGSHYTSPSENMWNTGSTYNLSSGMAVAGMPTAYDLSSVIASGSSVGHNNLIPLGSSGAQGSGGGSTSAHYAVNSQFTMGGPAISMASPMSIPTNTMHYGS
The data set can be described thus: CARM1 histone methyltransferase (biochemical) assay. The method, then:
CARM1 activity was measured as previously reported for the histone methyltransferases PRMT1/6/8[65] and PRMT5[58]. Briefly, CARM1 was preincubated with compounds for 30 minutes at room temperature before reactions were initiated. […] The assays were quenched by the addition of 300 μM unlabeled SAM. The quantity of ^3H-labeled peptide produced was measured by Flashplate on a Topcount reader. Further details can be found in the Supplementary Methods.
Histone methyltransferase assay
The compounds were preincubated with CARM1 for 30 minutes at room temperature before the reactions were initiated by the addition of substrates. […]
containing 20 mM bicine, 1 mM tris(2-carbox yethyl)phosphine, 0.005% bovine skin gelatin and 0.002% Tween-20, pH 7.5 and 2% DMSO. The peptide sequence was biotin-aminohexanoate- […]
eKS AP-amide, where RMe is a monomethylated arginine residue (21st
Century Biochemicals, Marlboro, MA). After 2 hours, assa ys were quenched b y the addition of 300 μM unlabeled SAM. The reactions were tran sferred to a 384-well Flashplate (Perkin Elmer) and the biotinylated peptides were allowed to bind to the streptavidin surface for at least 1 hour before being washed once with 0.1% Tween 20. The quantit y of 3H-labeled peptide bound to the Flashplate surface was counted on a Topcount reader as counts per minute (cpm). % Inhibition values wer e calculated and IC50 values were fit using the 3 -param eter IC50 equation below:
YY = BBBBBBBBBBBB + (100 − BBBBBBBBBBBB )HHHHHHHH CCCCCCCCCCHHCCHHCCCCCC where top is fixed at 100 or the maximum inhibition plateau , Y is % inhibition and X is […]
IC50 vs [peptide] data were fit to the noncom petitive Cheng- Prusoff […]
The effect of reaction time on compound potency was determined b y meas uring IC50 values from […]
to a one phase exponential deca y equation. […]
activity was measured under standard conditions after a 30 minute preincubation.
IC 50 values were d etermi ned and data wer e anal yz ed using the following eq uation: […]

The next data set deals with NOMO-1. The data set can be described thus: Six-day cell proliferation assay (CellTiter-Glo). The format is cell-based. The following applies: Homo sapiens, 144 h; NOMO-1 (AML), 6 days; read-out: Average day 6 gIC50. The procedure: (§1) Six-day cell proliferation assay
(§2) Optimal cell seeding density was determined empirically for each cell lines by examining the gro wth of a wide ran ge o f seedin g densities in a 3 84-well formatto identify conditio ns that permitted maximal and continued proliferation for 6 days. Cells were plat ed in duplicate plates 24 hours before treatment with a 20- point two-fold dilution series of compound or 0.15%
(§3) DMSO. Plates were incubated for 6 da ys at 37°C in 5% CO2. Cells were th en l ysed with CellTiter-Glo (CTG) (Pr omega) and chemiluminescent sign al was detected with an appropriat e microplate reader. In addition, an untreated plate of cells was harvested at the time of compound addition (T0) to quantif y the initial cell densit y. CTG values obtained after 6 days of treatment were expressed as a percent of the T0 value and plotted against compound concentration. […]
(§4) Supplementary Table S 3. […] A p anel […]
(§5) of cell lines was treated with EZM2302fo r 6da ys in a proliferation ass a y. Cell densit y (as assessed b y CellTiter-Gl o) at da y 0 was compared to day 6 to det ermine growth IC 50 values , calculated us i n g a f our parameter dose response equation.
(§6) Cell Type According to Cell Type Category Cell L ine Name gIC50 Average day 6 Standard Replicates
In general terms: ATP-based viability assays read luminescence as a measure of living cells.

The test system of the next data set is OPM-2. The data set can be described thus: Six-day cell proliferation assay (CellTiter-Glo). The format is cell-based. The note with it: Homo sapiens, 144 h; OPM-2 (MM), 6 days; read-out: Average day 6 gIC50. The method, then:
as §1, §2, §3, §4, §5, §6

The next data set has as its system RPMI-8226. Put plainly: Six-day cell proliferation assay (CellTiter-Glo). The format is cell-based. The note with it: Homo sapiens, 144 h; RPMI-8226 (MM), 6 days; read-out: Average day 6 gIC50. The method, then:
as §1, §2, §3, §4, §5, §6

For the next data set, the system named is SK-MM-2. Put plainly: Six-day cell proliferation assay (CellTiter-Glo). The format is cell-based. The note with it: Homo sapiens, 144 h; SK-MM-2 (Plasma cell leukemia), 6 days; read-out: Average day 6 gIC50. The method, then:
as §1, §2, §3, §4, §5, §6

A further data set has as its system TF-1. The data set can be described thus: Six-day cell proliferation assay (CellTiter-Glo). The format is cell-based. The note with it: Homo sapiens, 144 h; TF-1 (AML M6; Erythroleukemia), 6 days; read-out: Average day 6 gIC50. The method, then:
as §1, §2, §3, §4, §5, §6

The next data set has as its system U266 B1. The data set can be described thus: Six-day cell proliferation assay (CellTiter-Glo). The format is cell-based. The note with it: Homo sapiens, U-266, 144 h; U266 B1 (MM), 6 days; read-out: Average day 6 gIC50. The method, then:
as §1, §2, §3, §4, §5, §6

A further data set concerns UCSD-AML1. The data set can be described thus: Six-day cell proliferation assay (CellTiter-Glo). Type of data set: cell-based. The following applies: 144 h; UCSD-AML1 (AML), 6 days; read-out: Average day 6 gIC50. The method, then:
as §1, §2, §3, §4, §5, §6

Another data set concerns UT-7. Put plainly: Six-day cell proliferation assay (CellTiter-Glo). Type of data set: cell-based. The note with it: Homo sapiens, UT7, 144 h; UT-7 (AML), 6 days; read-out: Average day 6 gIC50. The method, then:
as §1, §2, §3, §4, §5, §6

Data set [1] is described as follows: Pharmacokinetic study in mouse.
Method: An additional group of rats, cannulated in both the jugular and portal veins were dosed by oral gavage (10 mg/kg, in 0.5% methylcellulose in water). Approximately 110 μL of blood was taken from the animals by retro-orbital bleeding (mouse), tail vein (rat i.v.) or both jugular and portal vein sampling (rat p.o.) at pre-specified time intervals. The 2 h samples were split for parallel determination of blood and plasma concentration (ex vivo ratio). Blood samples were collected into K2-EDTA tubes and centrifuged to obtain plasma.
[2] abbreviates: male, CD-1, mouse, plasma, iv, 2 mg/kg.
The mark [3] stands for this setting: male, CD-1, mouse, plasma, po, 10 mg/kg.

Bounds are passed on as bounds.

What is called AUC(0-inf) is the area under the concentration-time curve extrapolated to infinity. Lower therefore signals less exposure. As usually defined, the AUC(0-t) is the area under the concentration-time curve up to a stated or last time point. Higher therefore signals more exposure. As a reminder, the Vd is a proportionality between amount in the body and measured concentration, not a real space. The low end stands for little distribution into tissue, the high end for wide distribution into tissue. The half-life is the time needed for the level to fall by half in the phase considered. Higher therefore signals slow decline. The term clearance denotes a measure of how efficiently the substance is removed, as volume per time. A low value points to a low capacity for elimination. One may read the Cmax as the maximum level reached in the sampled fluid or tissue. The Tmax is the time at which the peak concentration occurs. By bioavailability is commonly meant dose-corrected exposure relative to a reference, in per cent. The low end stands for poor availability, the high end for good availability.

Consider `CNC[C@@H](O)COc1ccc(Cl)c(-c2nc(-c3c(C)noc3C)c(C)c(N3CC4(CCN(C(=O)OC)CC4)C3)n2)c1` [EZM2302], for which, at CARM1 (varying EZM2302 and SAH), the “α value (dual inhibitor study with SAH)” value is listed as 0.2. Moreover, the “α (noncompetitive fit, substrate competition)” value at CARM1 (varying peptide concentrations) was 0.2. Moreover, the IC50 in the data set with NOMO-1 is above 36.5 µM; with OPM-2, 4.95 µM; in the data set with RPMI-8226, above 26.1 µM; in the data set on SK-MM-2 it was 20.4 µM; with TF-1, 25.9 µM; in the data set with U266 B1, 22.1 µM. Further, the IC50 in the data set on UCSD-AML1 was above 36.7 µM; with UT-7, above 27.6 µM. For the same molecule, in data set [1] (CD-1 mouse, IV Bolus 2 mg/kg, 2 mg/kg), the “CL (plasma clearance)” value is 43.2 mL/min/kg. For the same molecule, the AUC(0-inf) in data set [1] (setting [2]) was determined as 772 ng·h/mL; in [1] (setting [3]), 577 ng·h/mL. In addition, the AUC(0-t) in data set [1] (setting [2]) was found to be 767 ng·h/mL; in data set [1] (setting [3]) it was 568 ng·h/mL. In [1] (setting [2]), the Vd turned out to be 6.53 L/kg. The half-life was 4.22 h in data set [1] (setting [2]) and 4.55 h in data set [1] (setting [3]). For the same molecule, the clearance in [1] (male, CD-1, mouse, plasma, iv, 2 mg/kg, CL (plasma clearance), IV Bolus 2 mg/kg) is 43 mL/min/kg. For the same molecule, the highest level in [1] (setting [3]) (Cmax) was 177 ng/mL. Moreover, the Tmax in data set [1] (setting [3]) was found to be 2 h. In addition, the bioavailability in data set [1] (setting [3]) turned out to be 15%.
